The text below walks through data of US6846777B2, “Synergistic biocidal composition” (Thor GmbH, priority 2000, dated 2005).

“And” between values parts separate entries of the source, which are not always exact repeats. Identical values can stand only once. Like-named read-outs stand apart in the source and are kept apart here.

Common to all, as to experiment: MIC values / microbial growth in Sabouraud maltose broth and synergistic index (Kull)
Holding throughout (type): cell-based

Experiment [1] relates to Penicillium funiculosum DSM 12637. The following applies: employed alone, incubation 96 hours at 25° C.; for MIC: Talaromyces funiculosus, DSM12637. The protocol: (§1) In addition to the biocide component and water, the aqueous mixtures also comprised a nutrient medium, viz. a Sabouraud maltose broth (commercial product, Merck No. 10393). The cell density was 10^6 cells/ml. The incubation time was 96 hours at 25° C. Each sample was incubated in a shaker-incubator at 120 rpm.
(§2) The synergistic index calculated by the method of F. C. Kull et al., Applied Microbiology, vol. 9 (1961), p. 538. Here, the synergistic index is calculated using the following formula: Synergistic index SI=Qa/QA+Qb/QB.
(§3) If the synergistic index has a value of above 1, this means that antagonism is present. If the synergistic index assumes a value of 1, this means that an additive effect of the two biocides exists. If the synergistic index assumes a value of less than 1, this means that synergism of the two biocides exists.
Again, the experimental batches contained a Sabouraud maltose broth as the nutrient medium. The cell density was 10^6 cells/ml. The incubation time was 96 hours at 25° C. Each sample was incubated in a shaker-incubator at 120 rpm.

The test system of experiment [2] is Aspergillus niger DSM 1957. The following applies: for Synergistic index Qa/QA + Qb/QB: single active ingredient alone; for MIC: Aspergillus niger, DSM1957. The protocol: as §1, §2, §3
(§4) Again, the experimental batches contained a Sabouraud maltose broth as the nutrient medium. The cell density was 10^6 cells/ml. The incubation time was 72 hours at 25° C. Each sample was incubated in a shaker-incubator at 120 rpm.

The subject of experiment [3] is Penicillium funiculosum IMI 211742. The following applies: employed alone, incubation 72 hours at 25° C.; for MIC: Talaromyces funiculosus, IMI211742. The protocol: as §1, §2, §3, §4

As to zinc pyrithione [ZnPy], the MIC value in experiment [1] was 2 ppm; in experiment [2] (employed alone, incubation 72 hours at 25° C.), 17.5 ppm; in experiment [3], 1 ppm and 0.75 ppm. Besides, the “MIC at ZnPy concentration Qa” value in experiment [2] (ZnPy alone (100.0 % by weight), 72 h/25° C.) is reported as 17.5 ppm. The “Synergistic index Qa/QA + Qb/QB” value in experiment [2] (72 h/25° C.) came out at 1.00.

In the case of `CCCCCCCCn1sccc1=O` [OIT, 2-n-octylisothiazolin-3-one], in experiment [1], the MIC value turned out to be 0.5 ppm.

Turning to `CCCCCCCCn1sc(Cl)c(Cl)c1=O` [DCOIT, 4,5-dichloro-2-n-octyl-4-isothiazolin-3-one], the MIC in experiment [1] was 2 µg/mL; in experiment [2] (DCOIT alone (100.0 % by weight), 72 h/25° C., read-out: MIC at DCOIT concentration Qb), 0.75 µg/mL; in experiment [2] (employed alone, incubation 72 hours at 25° C., read-out: MIC value), 0.75 µg/mL; in experiment [3], 1 µg/mL. For the same compound, the “Synergistic index Qa/QA + Qb/QB” value in experiment [2] (72 h/25° C.) is listed as 1.00.

For the compound `CCCCNC(=O)OCC#CI` [IPBC, 3-iodo-2-propynyl N-butylcarbamate], the MIC in experiment [1] came out at 2 µg/mL; in experiment [3] it was 0.75 µg/mL.
